Laboratory results published in PMC2724708, “Adenosine Kinase of T. b. rhodesiense Identified as the Putative Target of 4-[5-(4-phenoxyphenyl)-2H-pyrazol-3-yl]morpholine Using Chemical Proteomics” (PLoS Neglected Tropical Diseases, 2009).
Like-named read-outs stand apart in the source and are kept apart here.

Columns and labels:
[1] = target: T1, adenosine kinase of T. b. rhodesiense (TbrAK) (Trypanosoma brucei rhodesiense, UniProt Q584S0); assay: Isothermal titration calorimetry (ITC) with TbrAK; assay type: binding; settings: for Kd: two-sites non-interacting binding model
T1 sequence (Q584S0 1-345): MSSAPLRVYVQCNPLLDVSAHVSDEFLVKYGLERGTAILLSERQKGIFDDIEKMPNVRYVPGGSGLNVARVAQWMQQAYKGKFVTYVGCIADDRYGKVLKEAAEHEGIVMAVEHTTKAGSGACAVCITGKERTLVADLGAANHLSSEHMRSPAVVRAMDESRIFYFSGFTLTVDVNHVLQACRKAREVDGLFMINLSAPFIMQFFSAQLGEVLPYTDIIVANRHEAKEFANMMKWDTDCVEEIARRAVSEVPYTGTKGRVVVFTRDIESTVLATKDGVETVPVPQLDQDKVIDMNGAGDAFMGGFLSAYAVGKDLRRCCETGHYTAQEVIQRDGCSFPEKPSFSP
Protocol: Isothermal titration calorimetry (ITC) was employed to elucidate the binding affinity of compound 1 toward TbrAK. All solutions were degassed for 5 min with gentle stirring under vacuum. TbrAK was dialyzed into buffer E2 (20 mM Tris, 150 mM NaCl, pH 7.5, 5% glycerol), diluted to 7 µM and supplemented with 1% DMSO, filtered and filled into the sample cell. The ligand solution was prepared by diluting a stock solution of compound 1 or 5 in DMSO with buffer E2 to give a final concentration of 150 µM and 1% DMSO. The final ligand solution was filtered before use. A titration experiment consisted of a first control injection of 1 µl followed by 27 injections, each of 10 µl and 20 s duration, with a 4-min interval in between. Raw data were collected, corrected for ligand heats of dilution, integrated and fit to the two-set non-interacting binding sites model using the Origin® software supplied with the instrument. The measurements were performed at least in duplicate.

[2] = target: T1, adenosine kinase of T. b. rhodesiense (TbrAK); assay: Radiometric assay for EC50 determination (TbrAK hyperactivation); assay type: biochemical; settings: 12 µM [2-3H]adenosine, 167 µM ATP, 0.88 nM TbrAK, 37°C
Protocol: Radiometric assay for EC50 determination
The EC50 for hyperactivation of TbrAK by compound 1 was obtained by monitoring the conversion of [2-3H]adenosine to [2-3H]AMP. Reactions were executed at 37°C in a final volume of 30 µl containing 20 mM Hepes, 50 mM NaCl, 167 µM ATP, 167 µM MgCl2, 0.33 % BSA, and 1.0 % DMSO. The concentration of [2-3H]adenosine was kept constant at 12 µM while compound 1 was varied in the range of 0-100 µM. The reaction was started by the addition of 1 ng (0.88 nM) TbrAK. The reactions were incubated and 5 µl aliquots were spotted on 5 mm diameter DE81-cellulose disks placed in a 96-well plate to stop the reaction. The disks were washed 3 times with 250 µl 5 mM ammonium formate, once with H2O, transferred to scintillation vials, and then soaked with 2 ml of the displacement solution (100 mM HCl, 200 mM KCl) and gently shaken for 1 minute to elute the phosphorylated product. After adding 10 ml scintillation liquid, the samples were counted. For comparative reasons the activity recorded in absence of compound was set to 100 %. The mean of four independent measurements is reported.

[3] = design: method as in PMID 17949068; settings: cited from earlier work
[4] = system: T. b. rhodesiense; design: method as in PMID 17949068; settings: in vitro, blood stage parasite; read-out: IC50 against blood stage T.b. rhodesiense; cited from earlier work
[5] = system: bloodstream-form T. b. brucei TbAK RNAi cells; assay: Drug sensitivity test (Alamar blue) on TbAK RNAi knock-down mutant; assay type: cell-based; settings: Trypanosoma brucei
Protocol: The construction of the T. b. brucei adenosine kinase gene knock-down mutant has been described recently. Expression of a stem-loop construct targeting TbAK was induced by addition of 10 µg/ml tetracycline to the medium. Down-regulation of TbAK expression was verified by Northern blotting. Parasites were cultivated and drug sensitivity was tested using the Alamar blue test. IC50 values were calculated by nonlinear fitting to the sigmoidal dose-response curve using Origin® software. The assays were performed in triplicates for at least four times.

[6] = target: T1, adenosine kinase of T. b. rhodesiense (TbrAK); assay: Radiometric assay for kinetic study of TbrAK; settings: in presence of compound 1 (33.4 µM), 167 µM ATP
Protocol: Kinetic constants for adenosine phosphorylation by TbrAK were obtained by monitoring the conversion of [2-^3H]adenosine to [2-^3H]AMP. Reactions were executed at 37°C in a final volume of 30 µl containing 20 mM Hepes (pH 7.0), 50 mM NaCl, 167 µM ATP, 167 µM MgCl2, 0.34% BSA, and 0.34% DMSO. […] The concentration of [2-^3H]adenosine (0.1–12 µM) was chosen in consideration of Michaelis–Menten conditions for initial velocity measurements. The reaction was started by the addition of 1 ng (0.88 nM) TbrAK. The reactions were incubated and 5 µl aliquots were spotted on 5 mm diameter DE81-cellulose disks placed in a 96-well plate to stop the reaction. The disks were washed 3 times with 250 µl 5 mM ammonium formate, once with H2O, transferred to scintillation vials, and then soaked with 2 ml of a displacement solution (100 mM HCl, 200 mM KCl) and gently shaken for 1 minute to elute the phosphorylated products [9]. After adding 10 ml scintillation liquid, the samples were counted in scintillation counter. Km and Vmax with respect to adenosine and Ki for adenosine substrate-inhibition in absence and presence of compound 1 were determined by non-linear fit of the data to the substrate-inhibition model described elsewhere [10].

[7] = target: T1, adenosine kinase of T. b. rhodesiense (TbrAK); assay: HPLC activity assay for TbrAK; assay type: biochemical
Protocol: TbrAK catalyzes the ATP-dependent phosphorylation of the 5′-hydroxyl moiety of adenosine to form AMP and ADP. The activity assay was based on HPLC separation of substrate and products (adenosine, AMP, ADP, and ATP). The mobile phase consisted of 35 mM KH2PO4, 6 mM tetrabutylammonium hydrogensulfate, (pH 7.0, adjusted with KOH), 125 mM EDTA, and 1% (v/v) acetonitrile. The separation was performed isocratically at a flow-rate of 1.5 ml/min and monitored at 254 nm. The standard reaction in 75 µl total volume containing 0.5 mM ATP, 0.5 mM adenosine, 0.5 mM MgCl2, 1% DMSO in buffer E1 (20 mM Hepes, 150 mM NaCl, pH 7.0) was started with the addition of 2 µg TbrAK (final concentration 0.7 µM) and incubated at 37°C for 10 min while shaking vigorously (600 rpm). […] All reactions were stopped by adding 75 µl mobile phase. 50 µl of the sample volume were injected for analysis and the resulting ADP/ATP ratios were calculated and used as a measure of activity. For comparative reasons the activity recorded in absence of compound was set to 100%. The mean of three independent measurements are reported.

In the case of `c1ccc(Oc2ccc(-c3cc(N4CCOCC4)[nH]n3)cc2)cc1` [compound 1, 4-[5-(4-phenoxyphenyl)-2H-pyrazol-3-yl]morpholine], the “molecules of compound bound per molecule of enzyme” value [1] is reported as “two”, the “ΔHbind, high affinity binding site” value [1] is reported as -3.05 ± 0.77 kcal/mol and the “ΔHbind, low affinity binding site” value [1] is reported as -1.13 ± 0.24 kcal/mol. The Kd ([1]; read-out: KD, high affinity binding site) was 75 ± 20 nM, the Kd ([1]; read-out: KD, low affinity binding site) was 497 ± 34 nM and the EC50 [2] was 38 ± 12 nM. For the same compound, the “cytotoxicity / general toxicity” value [3] was “low cytotoxicity”, the IC50 [4] was 1000 nM and the IC50 ([5]; read-out: IC50 on TbAK RNAi cells, induced) was 271 ± 25 nM. The IC50 ([5]; read-out: IC50 on TbAK RNAi cells, non-induced) was 131 ± 43 nM, the “Ki adenosine (substrate-inhibition)” value [6] was 78400 ± 2200 nM and the Vmax [6] was 14.20 ± 0.14 nM/min. The kcat [6] was 0.27 ± 0.01 s⁻¹, the activity at 50 µM ([7]; 50 µM compound, 0.7 µM TbrAK, 10 min, 37°C, ADP/ATP ratio, read-out: TbrAK activity in presence of compound (% of activity without compound)) was 245 ± 3% and the EC50 ([7]; 0.5 mM ATP, 0.5 mM adenosine, 0.7 µM TbrAK, read-out: EC50 of TbrAK activation (HPLC assay)) was 38900 ± 900 nM. For the same compound, the fold induction at 50 µM ([7]; 10 min, pH 7, 50 µM compound, read-out: fold increase of TbrAK activity) was 2.5 and the “concentration dependence of the activation effect” value ([7]; range 1–750 µM, up to solubility limit) was “concentration dependent”.
